Reference: patent publication US20250049741A1, “COMPOSITION FOR PREVENTING OR TREATING ALZHEIMER'S DISEASE COMPRISING PHOSPHOLIPASE C ACTIVATOR AS AN ACTIVE INGREDIENT” (Korea University Research and Business Foundation, priority 2021, published 2025)

Columns and labels:
PLCβ1 = assay: Western blot of PLCβ1 in rat hippocampal slices; type: cell-based, Sprague-Dawley rats; conditions: AβO+m-3M3FBS-treated rat hippocampal slices; similar to DMSO-treated slices
Experimental: Soluble AβO was prepared according to a previous study (BMC Biol. 2020; 18(1):7). Specifically, Aβ1-42 (Aβ) and a scrambled form of Aβ as a control peptide were purchased in powder form. Aβ and scrambled Aβ were dissolved for monomerization in 1,1,1,3,3,3-hexafluoro-2-propanol (HFIP, Sigma Aldrich, USA) at a final concentration of 1 mM, and the solution was incubated for 90 minutes. After the HFIP was evaporated, the remaining thin and clear film of Aβ or scrambled Aβ was dissolved in dimethyl sulfoxide (DMSO, Sigma Aldrich, USA) to prepare 5 mM Aβ or scrambled Aβ stocks, which were aliquoted and frozen at −20° C. Aβ or scrambled Aβ stocks were thawed and diluted to 100 μM in artificial cerebrospinal fluid (ACSF). Thereafter, Aβ or scrambled Aβ stocks were incubated for oligomerization for 18 hours. […]
Hippocampal PLCβ1 of SD rats and C57BL/6 or 5XFAD mice were prepared from homogenized hippocampi dissolved in 200 μL of RIPA buffer (Bio-Rad, USA), and were resolved on non-reducing 10% tris-glycine-sodium dodecyl sulfate-polyacrylamide gel electrophoresis (SDS-PAGE) gels (Bio-Rad, USA) using 4×Laemmli sample buffers (Bio-Rad, USA). […] Immunoreactivity was confirmed with enhanced chemiluminescence (Bio-Rad, USA) using a Fluorchem E system (ProteinSimple, USA) and analyzed with ImageJ software. […]

[1] = test system: CA1 PCs in rat hippocampal slices; assay: Ex vivo eCB / S-eCB mobilization protocol: eIPSC amplitudes by whole-cell voltage-clamp; type: cell-based, Sprague-Dawley rats; conditions: m-3M3FBS 30 μM
From the text: To test the acute effect of AβO on hippocampal S-eCB mobilization, hippocampal slices from Sprague-Dawley rats (SD, 2 to 3 weeks old, DaeHan Biolink, Co., Ltd., Korea) were used. Male and female rats were used in all in vitro experiments. To test the chronic effect of AβO on hippocampus-dependent memory impairments caused by amyloidosis, the 5XFAD mouse model (6 to 7 months old, #34840-JAX, Jackson Laboratory, USA), which is a mouse model of Alzheimer's disease that mimics AβO depositions, was used. C57BL/6 mice (6 to 7 months old, KOATECH, Korea) were used as wild type (WT) control mice for 5XFAD mice. Male 5XFAD and C57BL/6 mice were used for all in vivo behavioral experiments. The 5XFAD mouse genotypes were identified by polymerase chain reaction (PCR) using DNA extracted from the tails of the mice. All animal-related procedures followed the guidelines of the Institutional Animal Care and Use Committee of Korea University (guidelines for SD rats: KUIACUC-2017-103, guidelines for C57BL/6 and 5XFAD mice: KUIACUC-2019-0068).
Soluble AβO was prepared according to a previous study (BMC Biol. 2020; 18(1):7). Specifically, Aβ1-42 (Aβ) and a scrambled form of Aβ as a control peptide were purchased in powder form. Aβ and scrambled Aβ were dissolved for monomerization in 1,1,1,3,3,3-hexafluoro-2-propanol (HFIP, Sigma Aldrich, USA) at a final concentration of 1 mM, and the solution was incubated for 90 minutes. After the HFIP was evaporated, the remaining thin and clear film of Aβ or scrambled Aβ was dissolved in dimethyl sulfoxide (DMSO, Sigma Aldrich, USA) to prepare 5 mM Aβ or scrambled Aβ stocks, which were aliquoted and frozen at −20° C. Aβ or scrambled Aβ stocks were thawed and diluted to 100 μM in artificial cerebrospinal fluid (ACSF). Thereafter, Aβ or scrambled Aβ stocks were incubated for oligomerization for 18 hours. The final AβO or scrambled AβO stock solution was diluted to a final concentration of 200 nM in 31.2 ml of ACSF, and rat hippocampal slices were treated with the stock solution for 20 minutes in a recovery chamber before measurement of brain signals. In control experiments for normal brain conditions using a vehicle, rat hippocampal slices were treated with 0.004% DMSO in ACSF.
The brains of SD rats were isolated following decapitation under isoflurane-induced anesthesia and transferred into ice-cold ACSF containing 126 mM NaCl, […], 1.25 mM NaH2PO4, 2 mM MgSO4, 2 mM CaCl2), 25 mM NaHCO3, and 10 mM glucose (pH 7.2 to 7.4). The ACSF was continuously oxygenated with 95% O2/5% CO2. Horizontal hippocampal slices (350 μm thickness) were obtained using a vibratome (VT1000S, Leica Biosystems, Germany) and immediately incubated at room temperature in a submerged chamber perfused with oxygenated ACSF for at least 1 hour.
To quantify eCB mobilization, the changes in eCB mobilization-induced Schaffer collateral (SC) nerve bundle stimulation-evoked inhibitory postsynaptic current (eIPSC) amplitudes were measured in CA1 PCs through the whole-cell voltage-clamp technique. The whole-cell voltage-clamp technique in CA1 PCs was performed using a MultiClamp 700B amplifier (Molecular Devices, USA) under an infrared differential interference contrast video microscope (BW51W, Olympus, Japan), using a borosilicate electrode (tip resistance: 4 to 8 MΩ) that was filled with an intracellular solution containing 145 mM CsCl, 10 mM HEPES, 2 mM EGTA, 4 mM QX-314, 4 mM Mg-ATP, 0.4 mM […], pH 7.2 to 7.3, and 270 to 280 mOsm/L. To record eIPSCs in the CA1 PCs, a stimulating electrode (A-M Systems, USA) was placed in a stratum radiatum to stimulate the SC pathway that carries CA3 PC axons. Electrical stimulation pulses of 200 to 400 μA amplitudes (20 to 40 μs) were generated using a constant current stimulator (model DS3, Digitimer Ltd., UK). eIPSCs were recorded in CA PCs every 1 second while maintaining the membrane potential at −70 mV.

Cc1cc(C)c(S(=O)(=O)Nc2cccc(C(F)(F)F)c2)c(C)c1 [m-3M3FBS]
PLCβ1 protein levels in AβO-treated slices (PLCβ1): completely restored
synergistic enhancement of the suppression of eIPSC amplitudes (S-eCB mobilization) in AβO-treated slices ([1]; AβO-treated rat hippocampal slices): completely recovered
suppression of eIPSC amplitudes, recordings in DMSO-treated and scrambled AβO-treated slices ([1]; DMSO-treated and scrambled AβO-treated rat hippocampal slices): not significantly different
